This note sets out measurements from publication PMC9951859, “Investigation of α,ω-Disubstituted Polyamine-Cholic Acid Conjugates Identifies Hyodeoxycholic and Chenodeoxycholic Scaffolds as Non-Toxic, Potent Antimicrobials” (Antibiotics, 2023).

Series [1] relates to S. aureus. Put plainly: ATP release bioluminescence assay. Type of series: cell-based, Staphylococcus aureus. Particulars: followed over 30 min after exposure, CTAB (1%) positive control. As to the method:
Solutions of the test compound 7e were prepared in DMSO at various concentrations. A suspension of growing S. aureus to be studied in Muller-Hinton II broth was prepared and incubated at 37 °C. An aliquot (90 µL) of this suspension was added to 10 µL of test compound solution and vortexed for 10 s. Luciferin–luciferase reagent (Yelen, France; 50 µL) was immediately added to this mixture, and luminescent signal quantified with an Infinite M200 microplate reader (Tecan) over a 30 min period; ATP concentration was quantified using internal sample addition. A similar procedure was used for the CTAB positive control.

The nature of series [2]: Cytotoxicity assay on HEK293. It is filed as cell-based, human. Particulars: human, HEK293 human embryonic kidney cells; concentration at 50% cytotoxicity on HEK293; mean (n = 2); top dose tested 32 μg/mL. As to the method: (§1) Cytotoxicity assays were conducted using the protocols previously reported.
The subject of series [3] is Staphylococcus aureus ATCC 43300 (MRSA). The experiment in a line: Antimicrobial MIC assay (CO-ADD) against S. aureus MRSA. Type of series: cell-based. The conditions noted are these: Staphylococcus aureus, read-out: MIC S.a. From the text: (§2) Antimicrobial evaluation against S. aureus (MRSA) (ATCC 43300), E. coli (ATCC 25922), K. pneumoniae (ATCC 700603), A. baumannii (ATCC 19606), C. albicans (ATCC 90028), and C. neoformans (ATCC 208821) was undertaken at the Community for Open Antimicrobial Drug Discovery at The University of Queensland (Australia) according to their standard protocols as reported previously.

Series [4] relates to Pseudomonas aeruginosa ATCC 27853. Put plainly: Antimicrobial MIC assay (CO-ADD) against P. aeruginosa. It is filed as cell-based. Particulars: Pseudomonas aeruginosa, ATCC27853, read-out: MIC P.a.
For series [5], the system named is Klebsiella pneumoniae ATCC 700603. Put plainly: Antimicrobial MIC assay (CO-ADD) against K. pneumoniae. It is filed as cell-based. Particulars: Klebsiella pneumoniae, ATCC700603, read-out: MIC K.p.
Excerpt: as §2

In series [6] the test system is Candida albicans ATCC 90028. The experiment in a line: Antimicrobial MIC assay (CO-ADD) against C. albicans. It is filed as cell-based. The conditions noted are these: Candida albicans, ATCC90028, read-out: MIC C.a., Candida albicans ATCC 90028; mean (n = 2).
Excerpt: as §2

Series [7] concerns Cryptococcus neoformans ATCC 208821. Put plainly: Antimicrobial MIC assay (CO-ADD) against C. neoformans. Type of series: cell-based. Particulars: Cryptococcus neoformans, ATCC208821, read-out: MIC C.n.
Excerpt: as §2

Series [8] deals with E. coli ATCC 25922. The experiment in a line: Antibiotic enhancement of erythromycin. Type of series: cell-based, Escherichia coli. Particulars: erythromycin at 2 μg/mL. As to the method: (§3) Restoring enhancer concentrations were determined with an inoculum of 5 × 10^5 CFU in […] of MH broth containing two-fold serial dilutions of each derivative in the presence of either doxycycline or erythromycin at 2 μg/mL. […] These measurements were independently repeated in triplicate.

For series [9], the system named is human red blood cells. Put plainly: Hemolytic assay. It is filed as cell-based. The conditions noted are these: concentration at 10% hemolytic activity on human red blood cells; mean (n = 2); top dose tested 32 μg/mL. As to the method:
Hemolytic assays were conducted using the protocols previously reported.

Series [10] has as its system Acinetobacter baumannii ATCC 19606. Put plainly: Antimicrobial MIC assay (CO-ADD) against A. baumannii. The conditions noted are these: Acinetobacter baumannii, ATCC19606, read-out: MIC A.b. It is filed as cell-based.
Excerpt: as §2

Series [11] has as its system P. aeruginosa ATCC 27853. The experiment in a line: Antibiotic enhancement of doxycycline. Type of series: cell-based, Pseudomonas aeruginosa. The conditions noted are these: doxycycline at 2 μg/mL. As to the method: as §3
In series [12] the test system is Escherichia coli ATCC 25922. The experiment in a line: Antimicrobial MIC assay (CO-ADD) against E. coli. It is filed as cell-based. The conditions noted are these: Escherichia coli, ATCC25922, read-out: MIC E.c.
Excerpt: as §2

In series [13] the test system is HEK293 human embryonic kidney cells. Put plainly: Cytotoxicity assay on HEK293. Type of series: cell-based. The conditions noted are these: concentration at 50% cytotoxicity on HEK293; mean (n = 2); top dose tested 32 μg/mL. As to the method: as §1

`CCCCCCCCCCCCCCCC[N+](C)(C)C` [CTAB, cetyltrimethylammonium bromide, reference compound]: the “ATP release (extracellular ATP, bioluminescence)” value in [1] is listed as “dramatically disrupted the S. aureus membrane after 2 min”.

What is called IC50 is the concentration needed to halve the response being measured. A word on the MIC: it is the lowest concentration found to suppress growth. In turn, `C[C@H](CCC(=O)NCCCNCCCCNCCCNC(=O)CC[C@@H](C)[C@H]1CC[C@H]2[C@@H]3C[C@H](O)[C@@H]4C[C@H](O)CC[C@]4(C)[C@H]3CC[C@]12C)[C@H]1CC[C@H]2[C@@H]3C[C@H](O)[C@@H]4C[C@H](O)CC[C@]4(C)[C@H]3CC[C@]12C.O=C(O)C(F)(F)F.O=C(O)C(F)(F)F` [Compound 7a, N^1,N^4-Bis(3-((R)-4-((3R,5R,6S,8S,9S,10R,13R,14S,17R)-3,6-dihydroxy-10,13-dimethylhexadecahydro-1H-cyclopenta[a]phenanthren-17-yl)pentanamido)propyl)butane-1,4-diaminium 2,2,2-trifluoroacetate] came in with an IC50 in series [2] of over 27 µM. Moreover, the minimal inhibitory concentration (MIC) in [3] was 3.4 µM; in [4], over 27 µM; in [5], over 27 µM; in series [6], 14 µM; in series [7], at most 0.21 µM; in series [10], over 27 µM. The MIC in [12] is over 27 µM. The “enhancement of antibiotic activity of erythromycin” value (from here on “enhancement … of erythromycin”) in series [8] is given as “No enhancement was observed”. Moreover, the “Hemolysis (HC10)” value in series [9] is over 27 µM. The “enhancement of antibiotic activity of doxycycline” value (“enhancement … of doxycycline” below) in [11] is “No enhancement was observed”.

Take `C[C@H](CCC(=O)NCCCNCCCCCCCNCCCNC(=O)CC[C@@H](C)[C@H]1CC[C@H]2[C@@H]3C[C@H](O)[C@@H]4C[C@H](O)CC[C@]4(C)[C@H]3CC[C@]12C)[C@H]1CC[C@H]2[C@@H]3C[C@H](O)[C@@H]4C[C@H](O)CC[C@]4(C)[C@H]3CC[C@]12C.O=C(O)C(F)(F)F.O=C(O)C(F)(F)F` [Compound 7c, N^1,N^7-Bis(3-((R)-4-((3R,5R,6S,8S,9S,10R,13R,14S,17R)-3,6-dihydroxy-10,13-dimethylhexadecahydro-1H-cyclopenta[a]phenanthren-17-yl)pentanamido)propyl)heptane-1,7-diaminium 2,2,2-trifluoroacetate]: the IC50 in series [2] is over 26 µM. Moreover, the MIC is at most 0.21 µM in series [3]; over 26 µM in [4]; over 26 µM in series [5]; 13 µM in series [6]; at most 0.21 µM in series [7]; over 26 µM in series [10]. In addition, the MIC in [12] is over 26 µM. The “enhancement … of erythromycin” value in [8] is “No enhancement was observed”. Further, the “Hemolysis (HC10)” value in series [9] is over 26 µM. Besides, in [11], the “enhancement … of doxycycline” value is “No enhancement was observed”.

For `C[C@H](CCC(=O)NCCCNCCCCCCCCNCCCNC(=O)CC[C@@H](C)[C@H]1CC[C@H]2[C@@H]3C[C@H](O)[C@@H]4C[C@H](O)CC[C@]4(C)[C@H]3CC[C@]12C)[C@H]1CC[C@H]2[C@@H]3C[C@H](O)[C@@H]4C[C@H](O)CC[C@]4(C)[C@H]3CC[C@]12C.O=C(O)C(F)(F)F.O=C(O)C(F)(F)F` [Compound 7d, N^1,N^8-Bis(3-((R)-4-((3R,5R,6S,8S,9S,10R,13R,14S,17R)-3,6-dihydroxy-10,13-dimethylhexadecahydro-1H-cyclopenta[a]phenanthren-17-yl)pentanamido)propyl)octane-1,8-diaminium 2,2,2-trifluoroacetate], in series [2], the IC50 was over 26 µM. For the same compound, the minimal inhibitory concentration (MIC) in series [3] is at most 0.2 µM; in series [4] it was over 26 µM; in series [5] it was over 26 µM; in [6] it was 13 µM; in [7], at most 0.2 µM; in series [10] it was over 26 µM. Further, the MIC in series [12] was over 26 µM. Also, in series [8], the “enhancement … of erythromycin” value is reported as “No enhancement was observed”. Besides, in series [9], the “Hemolysis (HC10)” value is over 26 µM. Further, in [11], the “enhancement … of doxycycline” value was “No enhancement was observed”.

For `C[C@H](CCC(=O)NCCCNCCCCCCCCCCNCCCNC(=O)CC[C@@H](C)[C@H]1CC[C@H]2[C@@H]3[C@@H](O)C[C@@H]4C[C@H](O)CC[C@]4(C)[C@H]3CC[C@]12C)[C@H]1CC[C@H]2[C@@H]3[C@@H](O)C[C@@H]4C[C@H](O)CC[C@]4(C)[C@H]3CC[C@]12C.O=C(O)C(F)(F)F.O=C(O)C(F)(F)F` [Compound 8e, N^1,N^10-Bis(3-((R)-4-((3R,5S,7S,8R,9S,10S,13R,14S,17R)-3,7-dihydroxy-10,13-dimethylhexadecahydro-1H-cyclopenta[a]phenanthren-17-yl)pentanamido)propyl)decane-1,10-diaminium 2,2,2-trifluoroacetate], the IC50 in [2] was over 25 µM. Besides, the MIC is at most 0.2 µM in [3]; over 25 µM in series [4]; over 25 µM in series [5]; 3.2 µM in series [6]; 1.6 µM in [7]; over 25 µM in series [10]. In addition, in [12], the MIC was over 25 µM. Besides, the “Hemolysis (HC10)” value in series [9] came to 3.3 µM.

With `C[C@H](CCC(=O)NCCCNCCCCCCCCCCCCNCCCNC(=O)CC[C@@H](C)[C@H]1CC[C@H]2[C@@H]3[C@@H](O)C[C@@H]4C[C@H](O)CC[C@]4(C)[C@H]3CC[C@]12C)[C@H]1CC[C@H]2[C@@H]3[C@@H](O)C[C@@H]4C[C@H](O)CC[C@]4(C)[C@H]3CC[C@]12C.O=C(O)C(F)(F)F.O=C(O)C(F)(F)F` [Compound 8f, N^1,N^12-Bis(3-((R)-4-((3R,5S,7S,8R,9S,10S,13R,14S,17R)-3,7-dihydroxy-10,13-dimethylhexadecahydro-1H-cyclopenta[a]phenanthren-17-yl)pentanamido)propyl)dodecane-1,12-diaminium 2,2,2-trifluoroacetate], in [13], the “Cytotoxicity (IC50)” value is “exhibiting cytotoxic properties”. For the same compound, the half-inhibitory concentration (IC50) in series [2] was found to be 8.4 µM. The MIC was at most 0.19 µM in series [3]; over 25 µM in [4]; over 25 µM in series [5]; 3.1 µM in series [6]; at most 0.19 µM in series [7]; over 25 µM in [10]. Further, in series [12], the MIC is over 25 µM. In series [9], the “Hemolysis (HC10)” value stood at 1.4 µM.

Turning to `C[C@H](CCC(=O)NCCCNCCCCNCCCNC(=O)CC[C@@H](C)[C@H]1CC[C@H]2[C@@H]3[C@H](O)C[C@@H]4C[C@H](O)CC[C@]4(C)[C@H]3CC[C@]12C)[C@H]1CC[C@H]2[C@@H]3[C@H](O)C[C@@H]4C[C@H](O)CC[C@]4(C)[C@H]3CC[C@]12C.O=C(O)C(F)(F)F.O=C(O)C(F)(F)F` [Compound 9a, N^1,N^4-Bis(3-((R)-4-((3R,5S,7R,8R,9S,10S,13R,14S,17R)-3,7-dihydroxy-10,13-dimethylhexadecahydro-1H-cyclopenta[a]phenanthren-17-yl)pentanamido)propyl)butane-1,4-diaminium 2,2,2-trifluoroacetate], in series [13], the “Cytotoxicity (IC50)” value was “devoid of cytotoxicity”. This compound also gave an IC50 in series [2] of 27 µM. Besides, the MIC was at most 0.21 µM in series [3]; over 27 µM in series [4]; over 27 µM in series [5]; at most 0.21 µM in series [6]; at most 0.21 µM in series [7]; 27 µM in series [10]. For the same compound, in [12], the MIC worked out at 6.8 µM.
